# Test results taken from US8911953B2, “TDF-related compounds and analogs thereof, analogs and bioactive fragments” (Thrasos Innovation, Inc., priority 2005, dated 2014).
# No end group written: not given here.
# Tests used:
# [1] = system: vascular endothelial cells; test: Smad 1, 5 phosphorylation in vascular endothelial cells (Western blot); format: cell-based; settings: added to vascular endothelial cells in culture
# Experimental: (§1) Phosphorylation and nuclear translocation of Smads occurs following the activation of Type I and Type II receptors and subsequent signal transduction to intracellular Smad targets. Phosphorylation and nuclear translocation of R-Smad in HK-2, vascular endothelial, human prostate or other cells by TDFRP compounds is assayed by immuno-fluorescent microscopy methods, using anti-phospho Smad 1/5 antibodies according to the procedure of H Aoki, M Fujii, T Imamura, K Yagi, K Takehara, M Kato and K Miyazono. J. of Cell Sci. 114, 1483-1489, 2001) and by Western blot analysis (FIGS. 2, 3, 18, 2X).
# The detection of Smad phosphorylation by Western analysis, for example in LNCaP (prostate cancer cells) or EC (vascular endothelial cells) in culture medium can be examined after exposure to varying concentrations of TDFRP or control compounds. BMP-7 serves as a positive control. Cells are lysed in RIPA lysis buffer (50 mM Tris-HCl at pH 8.0, 150 mM NaCl, 1% NP-40, 0.5% sodium deoxycholate, 0.1% SDS) containing 1 mM PMSF, 1 mM sodium orthovanadate, and 10 ug/mL proteinase inhibitor cocktail. Lysates are incubated on ice for 15 minutes, centrifuged, and transferred supernatant to a clean tube. 50 to 100 ug is used for analysis by SDS-PAGE. Resolved proteins are electro transferred onto PVDF membrane. The blot is blocked by incubating in 3% non-fat dry milk prepared in PBS at room temperature for 1 hour with constant slow agitation. The blot is incubated with 1-2 ug/mL of primary antibody (rabbit anti-phospho-Smad 1) prepared in PBS-milk, overnight with agitation at 4 degree C., washed twice with PBS, and incubated with secondary antibody (anti rabbit HRP conjugated IgG, 1:3000 dilution) at room temperature for 2 hours with agitation. After washing in PBS-0.05% Tween 20 for 5 minutes and rinsing, Smad phosphorylation is detected via an HRP reaction according to manufacturer's instructions (FIGS. 2, 3, 18, 2X).
# as §1, with “HK-2” for “HK-2, vascular endothelial, human prostate or other”, “analysis in various cell types” for “analysis”, “27).” for “2X).”
# For detection of Smad phosphorylation by Western analysis, LNCaP (prostate cancer cells) or EC (vascular endothelial cells) in culture medium are exposed to varying concentrations of TDFRP or control compounds. BMP-7 served as a positive control. Cells are lysed in RIPA lysis buffer (50 mM Tris-HCl at pH 8.0, 150 mM NaCl, 1% NP-40, 0.5% sodium deoxycholate, 0.1% SDS) containing 1 mM PMSF, 1 mM sodium orthovanadate, and 10 ug/mL proteinase inhibitor cocktail. Lysates are incubated on ice for 15 minutes, centrifuged, and transferred supernatant to a clean tube. 50 to 100 ug is used for analysis by
# SDS-PAGE. Resolved proteins are electro transferred onto PVDF membrane. The blot is blocked by incubating in 3% non-fat dry milk prepared in PBS at room temperature for 1 hour with constant slow agitation. The blot is incubated with 1-2 ug/mL of primary antibody (rabbit anti-phospho-Smad 1) prepared in PBS-milk, overnight with agitation at 4 degree C., washed twice with PBS, and incubated with secondary antibody (anti rabbit HRP conjugated IgG, 1:3000 dilution) at room temperature for 2 hours with agitation. After washing in PBS-0.05% Tween 20 for 5 minutes and rinsing, Smad phosphorylation is detected via an HRP reaction according to manufacturer's instructions (FIGS. 3, 27).
# [2] = system: synovial membrane-derived mesenchymal stem cells; test: Chondrogenic differentiation, extracellular matrix deposition by alcian blue staining; format: cell-based
# Text: Influence of TDFRP compounds (SEQ ID NO 16, 33, 45, 217, 221) on chondrogenic differentiation of synovial membrane-derived mesenchymal stem cells leading to increased extracellular matrix deposition as determined by alcian blue staining. TDFRP compounds, SEQ ID NO:16, 33, 45, 217, and 221 correspond to Compounds E, A, C, B, and D, respectively.
# TDFRP compounds can be used to in the prophylaxis or treatment of diseases of the oral cavity, e.g., by affecting direct capping of bioactive molecules, or inducing the formation of reparative dentin and coronal or radicular pulp mineralization (Goldberg et al., Am J. Dent. 2003 February; 16(1):66-76). Further, TDFRP can be used in the prophylaxis or treatment of periodontal disease. […] TDFRP compounds can be used in the prophylaxis or treatment of traumatic brain injury, e.g., stroke, see, e.g., Cairns and Finkelstein, Phys Med Rehabil Clin N Am. 2003 February; 14(1 Suppl):S135-42). Intravenous administration of BMP-7 after ischemia improves motor function in stroke rats (Chang et al., Stroke. 2003 February; 34(2):558-64) and the TDFRP compounds may protect against or repair reperfusion injury. […] Thrasos compounds that bind to ALK3, a type I receptor for BMP, are therefore analyzed to examine if they induce chondrogenic differentiation leading to extra cellular matrix deposition in synovial membrane-derived mesenchymal stem cells. […]
# [3] = system: rat osteosarcoma (17/2.8) cells; test: Rat osteosarcoma (ROS) cell-based alkaline phosphatase assay; settings: 0.02-200 uM, 2 days, relative to BMP-7 standard
# Experimental: BMP interactions with Type I and Type II receptors can induce alkaline phosphatase activity, a marker for osteoblast activity, in ROS cells. An assay procedure as described in Maliakal, J. C., Asahina, I., Hauschka, P. V., and Sampath, T. K. (1994) Growth factors 11, 227-234, was used to determine the biological activities of TDFRP compounds. In a typical experiment, rat osteosarcoma (17/2.8) cells are plated in 96 well plates (3.0×10^4 cells/well) and incubated overnight at 37 C in 5-6% CO2 incubator. The next day, healthy and confluent cells are treated with increasing concentrations of BMP-7 standard (1-10,000 ng/ml) served as positive control or TDFRP compounds (0.02-200 uM) prepared in medium containing 1% FBS and incubated for 2 days at 37 C in 5-6% CO2 incubator. The cellular content of alkaline phosphatase activity is determined by the method of Reddi and Huggins (Reddi, A. H., and Huggins, C. B (1972) Proc. Natl. Acad. Sci. USA 69, 1601-1605). Enzyme estimations are performed in 96 well plates. Following removal of culture medium, cells are washed with pre-warmed PBS (150 ul) and incubated in 100 ul of pre-warmed 1% Triton X-100 for 30 minutes at 37 C. Plates are centrifuged for 10 minutes at full speed, and recovered samples (15 ul) are assayed for enzyme activity by adding 90 ul p-nitrophenyl phosphate (Sigma) as a substrate in 0.05 M glycine-NaOH buffer, pH 9.3 and incubating for 20 minutes at 37 C. The reaction is stopped by adding 75 ul of 0.2 N NaOH/well and absorbance at 405/490 nm is measured on a Dynatech MR 700 plate reader. Results are expressed as relative activities compared to a BMP-7 standard.
# BMP interactions with Type I and Type II receptors can induce alkaline phosphatase activity, a marker for osteoblast activity, in ROS cells. An assay procedure as described earlier (Maliakal, J. C., Asahina, I., Hauschka, P. V., and Sampath, T. K. (1994) Growth factors 11, 227-234) was used to determine the biological activities of TDFRP compounds. In a typical experiment, rat osteosarcoma (17/2.8) cells are plated in 96 well plates (3.0×10^4 cells/well) and incubated overnight at 37° C. in 5-6% CO2 incubator. […] The cellular content of alkaline phosphatase activity is determined by the method of Reddi and Huggins (Reddi, A. H., and Huggins, C. B (1972) Proc. Natl. Acad. Sci. USA 69, 1601-1605). […] The reaction is stopped by adding 75 ul of 0.2 N NaOH/well and absorbance at 405/490 nm is measured on a Dynatech MR 700 plate reader. Results are expressed as relative activities compared to a BMP-7 standard.
Substance,"phosphorylation and activation of intracellular Smad 1, 5 [1]",deposition of the extracellular matrix [2],induction of alkaline phosphatase activity [3]
CYFDDSSSVLCKKYRS [SEQ ID NO:209],"phosphorylation and activation of intracellular Smad 1, 5",,
CYFDDSSNVLCKKYRS-NH2 (not fully specified (bridges); printed as CYFDDSSNVLCKKYRS-NH2; cysteine pairing not given here) [SEQ ID NO:33],"phosphorylation and activation of intracellular Smad 1, 5",,
CYFNDSSNCLLKKYRS [SEQ ID NO:229],"phosphorylation and activation of intracellular Smad 1, 5",,
CIVNSSDDFLCKKYRS [SEQ ID NO:16],"phosphorylation and activation of intracellular Smad 1, 5",significantly increased,
CYFDDSSQVICKKYRS [SEQ ID NO:43],"phosphorylation and activation of intracellular Smad 1, 5",,
CYFDDSSQVLCKKYRS [SEQ ID NO:65],,,did not induce
CYFDDSSNVICKRYRS [SEQ ID NO:24],"phosphorylation and activation of intracellular Smad 1, 5",,
CYFDDSSKVICKKYRS [SEQ ID NO:130],,,did not induce
CYFNDSSQVLCKRYRS [SEQ ID NO:221],,significantly increased,did not induce
